# Where a SMILES comes first, the peptide text is derived from it. Bridges are numbered along the chain shown (N, C = ends). [ ]: non-standard residue; d: D form. The star is where a group is joined. hPhe(3,5-F2-4-CF3) = N[C@@H](CCc1cc(F)c(C(F)(F)F)c(F)c1)C(=O)O; hPhe(3-Cl-4-CF3) = N[C@@H](CCc1ccc(C(F)(F)F)c(Cl)c1)C(=O)O; NPrPhe(4-CF3) = CCCN[C@@H](Cc1ccc(C(F)(F)F)cc1)C(=O)O; NMeGly(cPent) = CN[C@H](C(=O)O)C1CCCC1; NMeNva(3-Et) = CCC(CC)[C@H](NC)C(=O)O; Ac4c(3,3-F2) = NC1(C(=O)O)CC(F)(F)C1; NMeD = CN[C@@H](CC(=O)O)C(=O)O; NMeL = CN[C@@H](CC(C)C)C(=O)O; Morpholide = C1CN(*)CCO1; Ac4c = NC1(C(=O)O)CCC1; Sar = CNCC(=O)O
# How the values were obtained:
# [1] = target: GDP-bound NRAS wild-type protein (Homo sapiens, UniProt P01111); test: Binding to NRAS by surface plasmon resonance (SPR), Single Cycle Kinetics; conditions: SPR; for NRAS/KRAS (ratio of KD value for NRAS to KD value for KRAS) / NRAS/KRAS (ratio of KD value with respect to NRAS to KD value with respect to KRAS): GDP-bound NRAS wild-type vs GDP-bound KRAS wild-type
# [2] = target: GDP-bound HRAS wild-type protein (Homo sapiens, UniProt P01112); test: Binding to HRAS by surface plasmon resonance (SPR), Single Cycle Kinetics; conditions: SPR; for HRAS/KRAS (ratio of KD value for HRAS to KD value for KRAS) / HRAS/KRAS (ratio of KD value with respect to HRAS to KD value with respect to KRAS): GDP-bound HRAS wild-type vs GDP-bound KRAS wild-type
# Chain of GDP-bound HRAS wild-type protein (P01112 whole entry): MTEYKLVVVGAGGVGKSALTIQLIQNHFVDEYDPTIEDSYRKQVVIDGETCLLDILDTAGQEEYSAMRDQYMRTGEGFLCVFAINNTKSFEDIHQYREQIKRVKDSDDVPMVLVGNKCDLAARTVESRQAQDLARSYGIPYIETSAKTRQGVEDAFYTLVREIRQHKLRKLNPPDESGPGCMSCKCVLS
# Chain of GDP-bound NRAS wild-type protein (P01111 whole entry): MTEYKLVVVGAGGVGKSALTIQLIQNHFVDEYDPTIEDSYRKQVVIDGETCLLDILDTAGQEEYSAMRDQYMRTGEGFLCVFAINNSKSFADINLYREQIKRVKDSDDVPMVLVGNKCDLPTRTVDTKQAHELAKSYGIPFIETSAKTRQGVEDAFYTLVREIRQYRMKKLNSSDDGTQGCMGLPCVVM
Compound,NRAS/KRAS (ratio of KD value for NRAS to KD value for KRAS) [1],HRAS/KRAS (ratio of KD value for HRAS to KD value for KRAS) [2],NRAS/KRAS (ratio of KD value with respect to NRAS to KD value with respect to KRAS) [1],HRAS/KRAS (ratio of KD value with respect to HRAS to KD value with respect to KRAS) [2],other results
CC[C@H](C)[C@@H]1NC(=O)[C@H](CC(C)C)N(C)C(=O)C[C@@H](C(=O)N(C)C)N(C)C(=O)[C@H](C2CCCC2)N(C)C(=O)C2(CC(C)(C)C2)NC(=O)[C@@H]2C[C@H](C)CN2C(=O)[C@H](CCc2cc(F)c(C(F)(F)F)c(F)c2)NC(=O)CN(C)C(=O)[C@H](Cc2ccc(C(F)(F)F)cc2)N2CC/C=C\C[C@@H](C2=O)N(C)C(=O)CN(C)C1=O [PP1662],A (a compound having 10 or more and less than 20 is denoted as A),B (a compound having 3 or more and less than 10 is denoted as B),,,
CCCOC[C@H]1C(=O)N[C@@H]([C@@H](C)CC)C(=O)N(C)CC(=O)N(C)[C@H]2C/C=C\CCN(C2=O)[C@@H](CC2CCC(F)(F)CC2)C(=O)N(C)CC(=O)N[C@@H](CCc2cc(F)c(C(F)(F)F)c(F)c2)C(=O)N2C[C@@H](C)C[C@H]2C(=O)NC2(CC(C)(C)C2)C(=O)N(C)[C@@H](C(CC)CC)C(=O)N(C)[C@H](C(=O)N(C)C)CC(=O)N1C [PP2490],,,AA (a compound having 20 or more is denoted as AA),A (a compound having 10 or more and less than 20 is denoted as A),
"CCO[C@@H]1C[C@H]2C(=O)NC3(CC(C)(C)C3)C(=O)N(C)[C@@H](C3CCCC3)C(=O)N(C)[C@H](C(=O)N(C)CC)CC(=O)N(C)[C@H]3CCCCCCc4ccc(cc4)C[C@@H](C(=O)N(C)CC(=O)N[C@@H](CCc4ccc(C(F)(F)F)c(OC)c4)C(=O)N2C1)N1CC/C=C\C[C@@H](C1=O)N(C)C(=O)CN(C)C(=O)[C@H]([C@@H](C)CC)NC3=O [PP2260, (1S,7S,11R,13S,19S,22S,26S,29S,35S,37Z)-19-cyclopentyl-11-ethoxy-N-ethyl-7-[2-[3-methoxy-4-(trifluoromethyl)phenyl]ethyl]-N,3,3′,3′,18,21,25,31,34-nonamethyl-29-[(1S)-1-methylpropyl]-2,5,8,14,17,20,24,27,30,33,55-undecaoxo-spiro[3,6,9,15,18,21,25,28,31,34,41-undecazapentacyclo[24.15.11.2^43,46.1^35,41.0^9,13]pentapentaconta-37,43(54),44,46(53)-tetraene-16,1′-cyclobutane]-22-carboxamide]",,,A (a compound having 10 or more and less than 20 is denoted as A),A (a compound having 10 or more and less than 20 is denoted as A),
CCO[C@@H]1C[C@H]2C(=O)NC3(CC(C)(C)C3)C(=O)N(C)[C@@H](C(CC)CC)C(=O)N(C)[C@H](C(=O)N(C)C)CC(=O)N(C)[C@@H](CC(C)C)C(=O)N[C@@H]([C@@H](C)CC)C(=O)N(C)CC(=O)N(C)[C@H]3C/C=C\CCN(C3=O)[C@@H](Cc3ccc(C)cc3)C(=O)N(C)CC(=O)N[C@@H](CCc3cc(F)c(C(F)(F)F)c(F)c3)C(=O)N2C1 [PP2141],,,A (a compound having 10 or more and less than 20 is denoted as A),A (a compound having 10 or more and less than 20 is denoted as A),
CCCN1C(=O)CN(C)C(=O)CN(C)C(=O)[C@H]([C@@H](C)CC)NC(=O)[C@H](CC(C)C)N(C)C(=O)C[C@@H](C(=O)N2CCOCC2)N(C)C(=O)[C@H](C(CC)CC)N(C)C(=O)C2(CCC2)NC(=O)[C@@H]2CCCN2C(=O)[C@H](CCc2ccc(C(F)(F)F)c(Cl)c2)NC(=O)CN(C)C(=O)[C@@H]1Cc1ccc(C(F)(F)F)cc1 [PP1958] ([NMeL]I[Sar][Sar][NPrPhe(4-CF3)][Sar][hPhe(3-Cl-4-CF3)]P[Ac4c][NMeNva(3-Et)][NMeD]-Morpholide; lactam N-11),B (a compound having 3 or more and less than 10 is denoted as B),B (a compound having 3 or more and less than 10 is denoted as B),,,
CCCOC[C@H]1C(=O)N[C@@H]([C@@H](C)CC)C(=O)N(C)CC(=O)N(C)[C@H]2C/C=C\CCN(C2=O)[C@@H](Cc2ccc(C(F)(F)F)cc2)C(=O)N(C)CC(=O)N[C@@H](CCc2ccc(C(F)(F)F)c(OC)c2)C(=O)N2C[C@H](OCC)C[C@H]2C(=O)NC2(CCC2)C(=O)N(C)[C@@H](C2CCCC2)C(=O)N(C)[C@H](C(=O)N(C)CCC)CC(=O)N1C [PP2017],A (a compound having 10 or more and less than 20 is denoted as A),A (a compound having 10 or more and less than 20 is denoted as A),,,
"CCCN1C(=O)CN(C)C(=O)CN(C)C(=O)[C@H]([C@@H](C)CC)NC(=O)[C@H](CC(C)C)N(C)C(=O)C[C@@H](C(=O)N(C)C)N(C)C(=O)[C@H](C2CCCC2)N(C)C(=O)C2(CC(F)(F)C2)NC(=O)[C@@H]2CCCN2C(=O)[C@H](CCc2cc(F)c(C(F)(F)F)c(F)c2)NC(=O)CN(C)C(=O)[C@@H]1Cc1ccc(C(F)(F)F)cc1 [PP0745] ([NMeL]I[Sar][Sar][NPrPhe(4-CF3)][Sar][hPhe(3,5-F2-4-CF3)]P[Ac4c(3,3-F2)][NMeGly(cPent)][NMeD]-NMe2; lactam N-11)",,,,,NRAS/KRAS (ratio of KD value with respect to GDP-bound NRAS wild-type protein to KD value with respect to KRAS) ([1]; KD ratio NRAS/KRAS): B (a compound having 3 or more and less than 10 is denoted as B); HRAS/KRAS (ratio of KD value with respect to GDP-bound HRAS wild-type protein to KD value with respect to KRAS) ([2]; KD ratio HRAS/KRAS): C (A compound having a KD ratio of 0.1 or more and less than 3 is denoted as C)

# From patent publication US20250230193A1, “CYCLIC COMPOUND HAVING SELECTIVE KRAS INHIBITORY EFFECT ON HRAS AND NRAS” (CHUGAI SEIYAKU KABUSHIKI KAISHA, priority 2022, published 2025)
